Measurements published in paper PMC7570662, “In Vivo Pharmacokinetic Analysis Utilizing Non-Targeted and Targeted Mass Spectrometry and In Vitro Assay against Transient Receptor Potential Channels of Maobushisaishinto and Its Constituent Asiasari Radix” (Molecules, 2020).

What was measured:
[1] = Qualitative non-targeted LC-HRMS analysis of AR compounds in rat plasma after oral AR or MBST; format: in vivo; conditions: for AR-Treated Rat Plasma (detection of compound): rat plasma 1 h after oral 2 g/kg AR, n = 1, LC-HRMS; for MBST-Treated Rat Plasma (detection of compound): rat plasma 1 h after oral 2 g/kg MBST, n = 3, LC-HRMS
Method: Extract powders of AR or MBST were suspended in distilled water and orally administered to rats having fasted for approximately 16 h. The dose of AR was set at 2 g/kg, and the MBST doses were set at 1 and 2 g/kg. 1 g/kg MBST contained 578 µg/kg, 147 µg/kg, 226 µg/kg, 426 µg/kg asarinin, sesamin, methyl kakuol, and amide A, respectively. The doses were chosen based on a previous pharmacological study of MBST using rats.
According to previous pharmacokinetic studies of herbal medicines, many of the components were quickly absorbed into the bloodstream, thereby providing the rationale for a sampling time at 1 h. Blood was centrifuged at 1200× g at 4 °C for 30 min to obtain plasma; then, the sample was stored at −80 °C until LC-HRMS analysis. […]
The plasma samples were collected at 1 h after MBST administration in case of both the qualitative (non-targeted) analysis and the quantitative (targeted) analysis.
The plasma samples of AR- or MBST-treated rats collected at 1 h post-administration were pretreated by deproteinization using methanol before the LC-HRMS analysis as follows: 100 µL plasma sample was mixed with 500 µL methanol, and the resultant solution was vortexed for 2 min. The mixture was centrifuged at 7000× g at 4 °C for 5 min. The supernatant was dried using a centrifugal evaporator, and the dried residue was dissolved in 100 μL of the initial LC mobile phase which is composed of 0.1 vol% formic acid in water/acetonitrile (99.9/0.1, v/v) and recentrifuged at 7000× g at 4 °C for 5 min. Finally, a 5 μL aliquot of the supernatant was injected into the LC-HRMS system comprised of an Acquity Ultra-Performance Liquid Chromatography System (Waters, Milford, MA, USA) and a Xevo G2-XS quadrupole time-of-flight MS (Waters) and was chromatographically separated using an ACQUITY UPLC HSS T3 column (2.1 × 150 mm I.D., 1.8-μm particle size; Waters) with an ACQUITY UPLC HSS T3 VanGuard Pre-column (2.1 mm × 5 mm I.D., 1.8-μm particle size; Waters) at 40 °C. The mobile phase consisted of solution A (0.1% formic acid, v/v) and solution B (acetonitrile) with a gradient of solution B (0.1%, 0 min; 99%, 24 min; v/v) at a flow rate of 0.4 mL/min. The analysis of the mass spectrometer fit with an electrospray ionization probe with sensitivity mode was performed for both the positive and negative ion mode. The resolution of the mass spectrometer was set at >20,000. For MS^E experiments, two acquisition functions with different collision energies were created: a low-energy function with a collision energy of 6 eV and a high-energy function with collision energy ranging from 15 to 40 eV.

human TRPA1 = target: T1, human TRPA1 (Homo sapiens, UniProt O75762); test: Ca2+ influx assay in TRPA1-expressing T-REx-293 cells; format: cell-based; conditions: 10 µmol/L test compound, relative to 20 µmol/L allyl isothiocyanate; for activation at 10 µM: T-REx-293, read-out: % of Activation Compared to Positive Control against Each Subfamily of TRP Channel TRPA1
T1 construct: Each full-length human TRPA1, TRPV1, TRPV4, and TRPM8 coding regions were introduced into a pcDNA4/TO vector; expressed in transfected cells; host or cells: T-REx-293 cells (tetracycline-induced, pcDNA4/TO vector)
T1 sequence (O75762 whole entry): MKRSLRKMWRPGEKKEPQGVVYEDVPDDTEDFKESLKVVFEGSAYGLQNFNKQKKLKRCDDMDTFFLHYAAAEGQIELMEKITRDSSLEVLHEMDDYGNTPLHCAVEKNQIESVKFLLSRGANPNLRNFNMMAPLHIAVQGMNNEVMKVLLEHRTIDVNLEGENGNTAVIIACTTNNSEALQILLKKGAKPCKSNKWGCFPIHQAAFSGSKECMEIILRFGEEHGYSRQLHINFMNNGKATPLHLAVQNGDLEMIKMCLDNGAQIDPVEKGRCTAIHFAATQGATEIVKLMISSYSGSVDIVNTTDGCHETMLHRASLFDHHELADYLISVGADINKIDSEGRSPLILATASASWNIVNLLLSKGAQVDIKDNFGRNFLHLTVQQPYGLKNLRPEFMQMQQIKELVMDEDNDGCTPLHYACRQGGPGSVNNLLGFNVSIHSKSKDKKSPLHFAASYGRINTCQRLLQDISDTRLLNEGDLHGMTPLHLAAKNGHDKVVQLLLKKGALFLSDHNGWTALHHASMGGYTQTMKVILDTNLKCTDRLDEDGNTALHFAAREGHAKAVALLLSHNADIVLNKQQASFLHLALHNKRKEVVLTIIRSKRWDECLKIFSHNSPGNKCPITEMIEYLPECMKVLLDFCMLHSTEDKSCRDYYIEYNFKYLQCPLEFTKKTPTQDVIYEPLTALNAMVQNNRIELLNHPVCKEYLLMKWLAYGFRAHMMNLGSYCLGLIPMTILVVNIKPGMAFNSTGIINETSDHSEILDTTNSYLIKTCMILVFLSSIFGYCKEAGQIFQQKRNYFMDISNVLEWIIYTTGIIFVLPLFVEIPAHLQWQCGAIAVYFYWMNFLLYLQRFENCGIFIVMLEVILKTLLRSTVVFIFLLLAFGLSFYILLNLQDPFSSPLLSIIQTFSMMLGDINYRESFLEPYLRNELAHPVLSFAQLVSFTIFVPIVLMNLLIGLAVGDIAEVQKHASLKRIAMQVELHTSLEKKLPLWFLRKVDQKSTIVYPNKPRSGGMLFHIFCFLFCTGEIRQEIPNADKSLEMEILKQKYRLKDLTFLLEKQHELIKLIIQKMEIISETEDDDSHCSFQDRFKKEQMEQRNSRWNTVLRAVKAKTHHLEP
Method: (§1) Each full-length human TRPA1, TRPV1, TRPV4, and TRPM8 coding regions were introduced into a pcDNA4/TO vector (Thermo Fisher Scientific, Waltham, MA, USA) and transfected into T-REx-293 cells (Thermo Fisher Scientific) to obtain stable cell lines expressing human TRPA1, TRPV1, TRPV4, and TRPM8. Cells were cultured in DMEM with 10% FBS, 4 mmol/L L-glutamine, and penicillin/streptomycin.
(§2) Cells were suspended in medium with 1 µg/mL tetracycline and seeded in poly-D-lysine coated 96-well plate at 2.5 × 10^4 cells/well. After overnight culture, the cells were used for Ca^2+ influx assay.
(§3) The Ca^2+ influx assay was performed using a FLIPR Calcium 5 Assay Kit (Molecular Devices, Sunnyvale, CA, USA) according to previously reported methods with minor modifications. In brief, cells were incubated with 80 µL Ca^2+-chelating dye dissolved in assay buffer at pH 7.4 (Hanks’ Balanced Salt Solution containing 20 mmol/L of N-2-hydroxyethylpiperazine-N’-2-ethanesulfonic acid) at room temperature for 30 min. The plates were assayed using a FlexStation 3 Microplate Reader (Molecular Devices). The fluorescence intensity was traced entirely for 80 s. The baseline of fluorescence was measured for 20 s before adding 20 µL of test compound (final concentration, 10 µmol/L). The response was expressed as percentage activation using the relative fluorescence units (RFU) (% activation = 100 × ((RFUmax − RFUbaseline)/RFUbaseline) − 100). Furthermore, the activities of each test compound against several subfamilies of TRP channels were represented as the relative enhancement of Ca^2+ influx of each positive control, indicated as follows: 20 µmol/L of allyl isothiocyanate (an agonist of TRPA1), 2 µmol/L of capsaicin (an agonist of TRPV1), 4 µmol/L of GSK1016790A (an agonist of TRPV4), and 20 µmol/L of icilin (an agonist of TRPM8). The dose–response curve was fitted to the sigmoidal dose-response equation (top, the max response of each compound), and EC50 values were calculated using GraphPad Prism 7 software (GraphPad, San Diego, CA, USA).

human TRPV1 = target: T2, human TRPV1 (Homo sapiens, UniProt Q8NER1); test: Ca2+ influx assay in TRPV1-expressing T-REx-293 cells; format: cell-based; conditions: 10 µmol/L test compound, relative to 2 µmol/L capsaicin; for activation at 10 µM: T-REx-293, read-out: % of Activation Compared to Positive Control against Each Subfamily of TRP Channel TRPV1
T2 construct: Each full-length human TRPA1, TRPV1, TRPV4, and TRPM8 coding regions were introduced into a pcDNA4/TO vector; expressed in transfected cells; host or cells: T-REx-293 cells (tetracycline-induced, pcDNA4/TO vector)
T2 sequence (Q8NER1 whole entry): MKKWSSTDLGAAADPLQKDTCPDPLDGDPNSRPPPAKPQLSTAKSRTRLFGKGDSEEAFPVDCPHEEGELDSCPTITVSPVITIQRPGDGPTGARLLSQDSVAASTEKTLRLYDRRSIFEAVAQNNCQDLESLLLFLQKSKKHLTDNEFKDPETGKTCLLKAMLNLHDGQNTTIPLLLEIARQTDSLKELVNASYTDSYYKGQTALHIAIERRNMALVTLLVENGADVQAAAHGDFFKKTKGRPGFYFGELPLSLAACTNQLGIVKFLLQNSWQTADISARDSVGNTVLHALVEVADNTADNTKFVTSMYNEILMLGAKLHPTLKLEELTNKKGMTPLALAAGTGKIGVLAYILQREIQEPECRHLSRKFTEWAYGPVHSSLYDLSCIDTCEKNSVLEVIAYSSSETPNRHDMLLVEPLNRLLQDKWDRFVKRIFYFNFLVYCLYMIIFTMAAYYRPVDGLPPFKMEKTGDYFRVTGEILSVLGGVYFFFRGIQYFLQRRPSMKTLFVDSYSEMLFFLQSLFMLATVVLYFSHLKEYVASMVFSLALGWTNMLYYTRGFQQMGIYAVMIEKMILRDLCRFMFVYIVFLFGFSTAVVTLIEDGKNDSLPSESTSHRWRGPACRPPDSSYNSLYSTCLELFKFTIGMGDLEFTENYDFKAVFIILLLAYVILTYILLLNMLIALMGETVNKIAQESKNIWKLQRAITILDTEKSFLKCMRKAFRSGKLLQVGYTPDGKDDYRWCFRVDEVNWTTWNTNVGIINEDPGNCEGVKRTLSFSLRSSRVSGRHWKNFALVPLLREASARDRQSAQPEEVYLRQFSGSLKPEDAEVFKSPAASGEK
Method: as §1, §2, §3

human TRPV4 = target: T3, human TRPV4 (Homo sapiens, UniProt Q9HBA0); test: Ca2+ influx assay in TRPV4-expressing T-REx-293 cells; format: cell-based; conditions: 10 µmol/L test compound, relative to 4 µmol/L GSK1016790A; for activation at 10 µM: T-REx-293, read-out: % of Activation Compared to Positive Control against Each Subfamily of TRP Channel TRPV4
T3 construct: Each full-length human TRPA1, TRPV1, TRPV4, and TRPM8 coding regions were introduced into a pcDNA4/TO vector; expressed in transfected cells; host or cells: T-REx-293 cells (tetracycline-induced, pcDNA4/TO vector)
T3 sequence (Q9HBA0 whole entry): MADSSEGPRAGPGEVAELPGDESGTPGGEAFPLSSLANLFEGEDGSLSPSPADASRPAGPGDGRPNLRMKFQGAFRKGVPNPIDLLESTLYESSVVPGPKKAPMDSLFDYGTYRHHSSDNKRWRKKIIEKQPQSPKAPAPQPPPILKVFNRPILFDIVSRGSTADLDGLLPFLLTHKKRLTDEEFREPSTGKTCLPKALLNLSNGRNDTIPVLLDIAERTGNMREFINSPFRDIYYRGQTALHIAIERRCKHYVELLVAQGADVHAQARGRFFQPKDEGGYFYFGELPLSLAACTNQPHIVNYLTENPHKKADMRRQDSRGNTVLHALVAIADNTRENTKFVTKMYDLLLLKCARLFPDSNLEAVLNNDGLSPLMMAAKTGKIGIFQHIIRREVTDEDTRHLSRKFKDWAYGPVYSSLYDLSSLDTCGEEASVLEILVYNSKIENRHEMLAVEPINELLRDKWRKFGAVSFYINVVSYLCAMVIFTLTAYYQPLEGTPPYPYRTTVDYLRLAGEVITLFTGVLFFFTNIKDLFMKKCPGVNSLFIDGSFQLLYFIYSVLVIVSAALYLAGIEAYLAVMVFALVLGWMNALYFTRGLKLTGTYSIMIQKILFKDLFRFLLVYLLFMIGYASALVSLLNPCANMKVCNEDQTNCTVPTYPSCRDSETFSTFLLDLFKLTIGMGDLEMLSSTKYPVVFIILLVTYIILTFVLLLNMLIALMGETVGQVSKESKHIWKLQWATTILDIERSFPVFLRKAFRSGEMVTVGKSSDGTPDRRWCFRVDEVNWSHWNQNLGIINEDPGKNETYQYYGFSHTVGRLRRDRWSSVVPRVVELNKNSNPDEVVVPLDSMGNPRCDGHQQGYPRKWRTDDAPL
Method: as §1, §2, §3

human TRPM8 = target: T4, human TRPM8 (Homo sapiens, UniProt Q7Z2W7); test: Ca2+ influx assay in TRPM8-expressing T-REx-293 cells; format: cell-based; conditions: 10 µmol/L test compound, relative to 20 µmol/L icilin; for activation at 10 µM: T-REx-293, read-out: % of Activation Compared to Positive Control against Each Subfamily of TRP Channel TRPM8
T4 construct: Each full-length human TRPA1, TRPV1, TRPV4, and TRPM8 coding regions were introduced into a pcDNA4/TO vector; expressed in transfected cells; host or cells: T-REx-293 cells (tetracycline-induced, pcDNA4/TO vector)
T4 sequence (Q7Z2W7 whole entry): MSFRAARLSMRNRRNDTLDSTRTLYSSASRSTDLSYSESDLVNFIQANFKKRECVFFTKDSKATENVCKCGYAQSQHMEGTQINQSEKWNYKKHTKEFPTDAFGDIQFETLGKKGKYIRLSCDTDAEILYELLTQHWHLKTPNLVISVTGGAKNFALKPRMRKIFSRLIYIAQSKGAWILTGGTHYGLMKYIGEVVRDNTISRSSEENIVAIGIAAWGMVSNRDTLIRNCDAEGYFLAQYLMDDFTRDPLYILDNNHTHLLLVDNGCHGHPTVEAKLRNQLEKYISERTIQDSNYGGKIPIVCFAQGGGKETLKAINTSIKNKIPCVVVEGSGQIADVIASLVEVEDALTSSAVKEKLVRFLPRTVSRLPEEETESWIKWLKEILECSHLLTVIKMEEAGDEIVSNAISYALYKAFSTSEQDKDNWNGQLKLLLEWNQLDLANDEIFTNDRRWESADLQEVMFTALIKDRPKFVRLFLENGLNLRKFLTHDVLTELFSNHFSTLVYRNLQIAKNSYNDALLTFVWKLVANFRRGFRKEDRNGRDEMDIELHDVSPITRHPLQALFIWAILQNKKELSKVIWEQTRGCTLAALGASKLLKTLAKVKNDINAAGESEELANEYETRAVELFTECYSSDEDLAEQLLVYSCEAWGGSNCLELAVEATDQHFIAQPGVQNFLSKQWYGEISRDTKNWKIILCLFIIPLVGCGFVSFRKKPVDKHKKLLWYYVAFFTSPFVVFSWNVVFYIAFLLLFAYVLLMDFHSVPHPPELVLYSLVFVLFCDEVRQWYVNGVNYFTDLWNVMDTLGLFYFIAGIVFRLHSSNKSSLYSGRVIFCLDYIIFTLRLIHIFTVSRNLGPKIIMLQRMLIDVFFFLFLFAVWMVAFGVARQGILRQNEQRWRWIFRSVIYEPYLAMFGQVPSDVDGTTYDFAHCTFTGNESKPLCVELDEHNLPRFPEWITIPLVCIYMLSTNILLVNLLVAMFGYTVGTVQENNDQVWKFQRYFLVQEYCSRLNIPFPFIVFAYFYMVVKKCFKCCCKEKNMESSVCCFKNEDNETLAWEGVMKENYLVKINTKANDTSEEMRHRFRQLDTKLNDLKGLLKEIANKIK
Method: as §1, §2, §3

SMILES | AR-Treated Rat Plasma (detection of compound) [1] | activation at 10 µM (human TRPA1) | activation at 10 µM (human TRPV1) | activation at 10 µM (human TRPV4) | activation at 10 µM (human TRPM8) | further results
CC=CC=CCCC=CC=CC(=O)NCC(C)C (single isomer, unassigned) [N-Isobutyl-2,4,8,10-dodecatetraenamide isomer] | + (The number of plus signs represents the sample number in which the compound was detected among AR-treated rat plasma (n = 1) and MBST-treated rat plasma (n = 3)) | – | – | – | – | MBST-Treated Rat Plasma (detection of compound) [1]: + + + (The number of plus signs represents the sample number in which the compound was detected among AR-treated rat plasma (n = 1) and MBST-treated rat plasma (n = 3))
Oc1ccc(C2OCC3C(c4ccc5c(c4)OCO5)OCC23)cc1O (stereo not drawn) [(7α,7′β,8α,8′α)-3,4-Methylenedioxy-3′,4′-dihydroxy-7,9′:7′,9-diepoxylignane] | + (The number of plus signs represents the sample number in which the compound was detected among AR-treated rat plasma (n = 1) and MBST-treated rat plasma (n = 3)) | – | – | – | – | –
COc1cc(O)cc2c1cc([N+](=O)[O-])c1c(C(=O)O)cc3c(c12)OCO3 [Aristolochic acid Iva] | + (The number of plus signs represents the sample number in which the compound was detected among AR-treated rat plasma (n = 1) and MBST-treated rat plasma (n = 3)) | – | – | – | – | MBST-Treated Rat Plasma (detection of compound) [1]: + + + (The number of plus signs represents the sample number in which the compound was detected among AR-treated rat plasma (n = 1) and MBST-treated rat plasma (n = 3))
CCN1C[C@]2(COC)[C@H](O)C[C@H](OC)[C@@]34[C@@H]5C[C@@]6(O)[C@H](OC(=O)c7ccccc7)[C@@H]5[C@@](O)([C@@H]([C@H](OC)[C@H]23)[C@@H]14)[C@@H](O)[C@@H]6OC [Benzoylaconitine] | – | – | – | – | – | % of Activation Compared to Positive Control against Each Subfamily of TRP Channel TRPA1 (human TRPA1): 3%; % of Activation Compared to Positive Control against Each Subfamily of TRP Channel TRPV1 (human TRPV1): −0.2%; % of Activation Compared to Positive Control against Each Subfamily of TRP Channel TRPV4 (human TRPV4): 0.0%; % of Activation Compared to Positive Control against Each Subfamily of TRP Channel TRPM8 (human TRPM8): 3.6%
O.Oc1cc(O)c2c(c1)O[C@H](c1ccc(O)c(O)c1)[C@@H](O)C2 [Catechin] | – | – | – | – | – | % of Activation Compared to Positive Control against Each Subfamily of TRP Channel TRPA1 (human TRPA1): 6%; % of Activation Compared to Positive Control against Each Subfamily of TRP Channel TRPV1 (human TRPV1): −0.3%; % of Activation Compared to Positive Control against Each Subfamily of TRP Channel TRPV4 (human TRPV4): 0.3%; % of Activation Compared to Positive Control against Each Subfamily of TRP Channel TRPM8 (human TRPM8): 4.0%
CN[C@@H](C)[C@H](O)c1ccccc1 [Ephedrine, (1R,2S)-(−)-Ephedrine, reference compound] | – | 3% | -0.5% | -0.4% | 3.2% | –
Oc1cc(O)c2c(c1)O[C@H](c1ccc(O)c(O)c1)[C@H](O)C2 [Epicatechin] | – | 6% | 0% | 0.6% | 4.2% | –
Oc1cc(O)c2c(c1)O[C@H](c1cc(O)c(O)c(O)c1)[C@H](O)C2 [Epigallocatechin] | – | 2% | -0.2% | 0.1% | 4.8% | –
C=CCc1ccc(OC)cc1 [Estragole] | + (The number of plus signs represents the sample number in which the compound was detected among AR-treated rat plasma (n = 1) and MBST-treated rat plasma (n = 3)) | – | – | – | – | –
